Assay results published in patent US20100216751A1 (priority 2007, published 2010).
“And” between values parts separate entries of the source, which are not always exact repeats. Identical values can stand only once.

Assay: Pharmacokinetic evaluation of liquid bevirimat dosage forms, oral gavage, male Cynomolgus monkeys
Description: Six male Cynomolgus monkeys having an initial body weight of about 3.5 to about 4.5 kg are allowed 7 days to acclimate to their individual housing units. Monkeys are supplied with water and a commercial diet ad libitum prior to the study initiation. Food is withheld from the monkeys for a minimum of twelve hours before the study and during the study until four hours postdose when food is returned. Water is supplied ad libitum.
Test formulations are administered to the monkeys at time 0 on appropriate days. Test formulations will be dosed orally via oral gavage or intravenously.
Samples are drawn at the frequencies indicated below. Each blood sample (0.5 mL) is collected from the monkey's saphenous vein via a butterfly catheter and placed into a chilled polypropylene tube containing sodium heparin as the anticoagulant. Blood samples are centrifuged at a temperature of 4° C. at a speed of 3,000 rpm for 15 minutes. All samples are maintained chilled throughout processing. Plasma is collected after centrifugation, pipetted into a 2-mL polypropylene microtube, and frozen on dry-ice pending analytical evaluation.

[1] = 12.5 mg FAE/mL in 10% HPβCD, 50 mg FAE/monkey oral gavage, monkeys 186,116,120,AVG
[2] = 12.5 mg FAE/mL in 15% EtOH:0.5% TPGS:15% PG:5% Glycerin, 0.2% Povidone K90, 50 mg FAE/monkey oral gavage, monkeys 117,118,119,AVG
[3] = 12.5 mg FAE/mL in 15% Ethanol, 30% PG, 10% Glycerin, 50 mg FAE oral gavage, monkeys 117,118,119,AVG
[4] = 12.5 mg FAE/mL in 40% PG, 20% Glycerin, 0.25% Tween80, 0.2% Povidone K15, 50 mg FAE oral gavage, monkeys 186,116,120,AVG
[5] = 12.5 mg FAE/mL in 40% PG, 20% Glycerin, 1% TPGS, 0.25% Tween80, 0.2% Povidone K15, 50 mg FAE/monkey oral gavage, monkeys 117,118,119,AVG
[6] = 12.5 mg FAE/mL in 40% PG, 20% glycerin, 5% Vitamin E TPGS, 0.25% Tween80, 0.20% Plasdone C15, 10 mM sodium phosphate pH 8.0, 200 mg/monkey (50.0 mg/kg) oral gavage, monkeys 181,182,AVG
[7] = 50 mg FAE/mL in 40% EtOH:40% PG:20% Glycerol, 50 mg FAE/monkey oral gavage, monkeys 117,118,119,AVG
[8] = male, cynomolgus monkey, in vivo, 50 mg/kg, pH 8
[9] = male, cynomolgus monkey, in vivo, po, 50 mg FAE/monkey

C=C(C)[C@@H]1CC[C@]2(C(=O)O)CC[C@]3(C)[C@H](CC[C@@H]4[C@@]5(C)CC[C@H](OC(=O)CC(C)(C)C(=O)O)C(C)(C)[C@@H]5CC[C@]43C)[C@@H]12 [Bevirimat, 3-O-(3′,3′-dimethylsuccinyl)betulinic acid]
AUCall [1]: 392.275 µg·h/mL | Cmax [1]: 56.4 µg/mL | Dnzed AUCall [1]: 38150 ng·h/mL/mg/kg | t1/2 [1]: 7.0 h and 11.4 h and 9.4 h | t1/2 (12.5 mg FAE/mL in 15% EtOH:0.5% TPGS:15% PG:5% Glycerin, 50 mg FAE/monkey oral gavage, monkeys 117,118,119,AVG): 11.3 h and 11.5 h and 11.6 h | AUCall [2]: 270.194 µg·h/mL and 344.629 µg·h/mL and 367.461 µg·h/mL | Cmax [2]: 65.6 µg/mL and 52.8 µg/mL and 56.567 µg/mL | t1/2 [2]: 14.5 h and 8.7 h and 11.8 h | Cmax [3]: 57.2 µg/mL and 97.4 µg/mL and 72.9 µg/mL | t1/2 [3]: 10.4 h and 9.0 h and 9.4 h | Dnzed AUCall [4]: 17281 ng·h/mL/mg/kg and 15596 ng·h/mL/mg/kg | t1/2 [4]: 8.1 h and 10.2 h and 8.7 h | t1/2 (12.5 mg FAE/mL in 40% PG, 20% Glycerin, 1% TPGS, 0.25% Tween80, 50 mg FAE/monkey oral gavage, monkeys 186,116,120,AVG): 9.9 h and 11.1 h and 10.3 h | Cmax [5]: 84.8 µg/mL and 77.2 µg/mL and 85.1 µg/mL | t1/2 [5]: 7.9 h and 6.4 h and 8.2 h | AUCall [6]: 1681.058 µg·h/mL | Cmax [6]: 174 µg/mL and 199.5 µg/mL | Dnzed AUCall [6]: 33621 ng·h/mL/mg/kg | t1/2 [6]: 10.2 h and 9.2 h | t1/2 (25 mg/mL in 30% EtOH:1% TPGS:30% PG:10% Glycerin, 50 mg FAE/monkey oral gavage, monkeys 117,118,119,AVG): 17.8 h and 9.0 h and 12.5 h | Cmax [7]: 24.9 µg/mL and 33.1 µg/mL and 27.933 µg/mL | t1/2 [7]: 7.8 h and 8.5 h | t1/2 (50 mg FAE/mL in 40% PG:20% Glycerin:1% TPGS:5% Tween 80 in SWFI, 50 mg FAE/monkey oral gavage, monkeys 117,118,119,AVG): 11.8 h and 14.6 h and 12.8 h | t1/2 (10% HPβCD, 50 mg FAE/monkey oral gavage, monkeys 117,118,119,AVG): 10.2 h and 11.0 h and 10.4 h | bioavailability (male, cynomolgus monkey, in vivo): ~55% | concentration at 1 hr [8]: 108 µg/mL | concentration at 2 hr [8]: 225 µg/mL | concentration at 4 hr [8]: 163 µg/mL | concentration at 6 hr [8]: 107 µg/mL | concentration at 8 hr [8]: 70.3 µg/mL | concentration at 12 hr [8]: 47.5 µg/mL | concentration at 0.25 hr (male, cynomolgus monkey, in vivo, po, 50 mg FAE): 3.06 µg/mL | concentration at 0.25 hr (male, cynomolgus monkey, in vivo, po, 50 mg FAE, Plasma concentration, 0.25 hr, 12.5 mg FAE/mL in 15% Ethanol, 30% PG, 10% Glycerin, 50 mg FAE oral gavage, monkeys 117,118,119,AVG, BLOQ=below 50 ng/mL): 0.066 µg/mL | concentration at 4 hr (male, cynomolgus monkey, in vivo, po, 50 mg FAE, Plasma concentration, 4.0 hr, 12.5 mg FAE/mL in 15% Ethanol, 30% PG, 10% Glycerin, 50 mg FAE oral gavage, monkeys 117,118,119,AVG): 46 µg/mL | concentration at 6 hr (male, cynomolgus monkey, in vivo, po, 50 mg FAE, Plasma concentration, 6.0 hr, 12.5 mg FAE/mL in 15% Ethanol, 30% PG, 10% Glycerin, 50 mg FAE oral gavage, monkeys 117,118,119,AVG): 44.7 µg/mL | concentration at 24 hr (male, cynomolgus monkey, in vivo, po, 50 mg FAE, Plasma concentration, 24 hr, 12.5 mg FAE/mL in 40% PG, 20% Glycerin, 0.25% Tween80, 0.2% Povidone K15, 50 mg FAE oral gavage, monkeys 186,116,120,AVG): 0.434 µg/mL | concentration at 48 hr (male, cynomolgus monkey, in vivo, po, 50 mg FAE, Plasma concentration, 48 hr, 12.5 mg FAE/mL in 40% PG, 20% Glycerin, 0.25% Tween80, 0.2% Povidone K15, 50 mg FAE oral gavage, monkeys 186,116,120,AVG): 0.0603 µg/mL | concentration at 72 hr (male, cynomolgus monkey, in vivo, po, 50 mg FAE, Plasma concentration, 72 hr, 12.5 mg FAE/mL in 15% Ethanol, 30% PG, 10% Glycerin, 50 mg FAE oral gavage, monkeys 117,118,119,AVG, BLOQ=below 50 ng/mL): 0.179 µg/mL | concentration at 1 hr [9]: 85.2 µg/mL | concentration at 2 hr [9]: 93.3 µg/mL | concentration at 4 hr [9]: 62.7 µg/mL | concentration at 0.25 hr (male, cynomolgus monkey, in vivo, po, 50 mg FAE/monkey, Plasma concentration, 0.25 hr, 25 mg/mL in 30% EtOH:1% TPGS:30% PG:10% Glycerin, 50 mg FAE/monkey oral gavage, monkeys 117,118,119,AVG, BLOQ=below 50 ng/mL): 0.147 µg/mL | concentration at 0.25 hr (male, cynomolgus monkey, in vivo, po, 50 mg FAE/monkey, Plasma concentration, 0.25 hr, 50 mg FAE/mL in 40% EtOH:40% PG:20% Glycerol, 50 mg FAE/monkey oral gavage, monkeys 117,118,119,AVG, BLOQ=below 50 ng/mL): 0.0755 µg/mL | concentration at 0.5 hr (male, cynomolgus monkey, in vivo, po, 50 mg FAE/monkey, Plasma concentration, 0.50 hr, 12.5 mg FAE/mL in 40% PG, 20% Glycerin, 1% TPGS, 0.25% Tween80, 0.2% NaCMC, 50 mg FAE/monkey oral gavage, monkeys 117,118,119,AVG): 12.5 µg/mL | concentration at 1 hr (male, cynomolgus monkey, in vivo, po, 50 mg FAE/monkey, Plasma concentration, 1.0 hr, 12.5 mg FAE/mL in 10% HPβCD, 50 mg FAE/monkey oral gavage, monkeys 186,116,120,AVG): 56.4 µg/mL | concentration at 1 hr (male, cynomolgus monkey, in vivo, po, 50 mg FAE/monkey, Plasma concentration, 1.0 hr, 12.5 mg FAE/mL in 40% PG, 20% Glycerin, 1% TPGS, 0.25% Tween80, 50 mg FAE/monkey oral gavage, monkeys 186,116,120,AVG): 65.5 µg/mL | concentration at 1 hr (male, cynomolgus monkey, in vivo, po, 50 mg FAE/monkey, Plasma concentration, 1.0 hr, 50 mg FAE/mL in 40% EtOH:40% PG:20% Glycerol, 50 mg FAE/monkey oral gavage, monkeys 117,118,119,AVG): 19.2 µg/mL
